# Read-outs that look alike come from different tables or passages of the source.
# Experiments:
# [1] = target: human NK1 receptor (Homo sapiens, UniProt P25103); assay: NK1 receptor binding, [3H]substance P displacement, CHO cell membranes
# [2] = target: T1, Recombinant human NK3 (hNK3) receptor (Homo sapiens, UniProt P29371); assay: NK3 receptor binding, [3H]SR142801 displacement, membrane preparations
# T1 construct: expressed in transfected cells
# T1 sequence (P29371 1-465): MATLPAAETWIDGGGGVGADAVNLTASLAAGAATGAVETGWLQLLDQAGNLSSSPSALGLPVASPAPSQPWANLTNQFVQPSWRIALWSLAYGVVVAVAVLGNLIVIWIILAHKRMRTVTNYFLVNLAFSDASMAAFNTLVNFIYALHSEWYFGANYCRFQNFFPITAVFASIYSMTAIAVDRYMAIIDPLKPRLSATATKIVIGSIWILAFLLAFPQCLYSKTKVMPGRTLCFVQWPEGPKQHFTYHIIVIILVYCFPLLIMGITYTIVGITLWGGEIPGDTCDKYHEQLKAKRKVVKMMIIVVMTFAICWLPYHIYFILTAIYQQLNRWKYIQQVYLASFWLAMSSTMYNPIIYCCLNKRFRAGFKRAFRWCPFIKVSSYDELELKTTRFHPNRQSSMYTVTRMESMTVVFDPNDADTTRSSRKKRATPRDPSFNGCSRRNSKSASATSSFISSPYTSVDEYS
# How it was run: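 hNK3 membranes (~2.5 μg/well) incubated 90 min at room temperature in 50 mM Tris-HCl pH 7.4 with 0.1% BSA, 4 mM MnCl2, 1 μM phosphoramidon. Nonspecific binding defined with 10 μM SB222200; bound [3H]SR142801 separated by filtration on PEI-soaked GF/C filters and counted by scintillation.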
# [3] = first value of the cell pKi NK1/NK3, human NK1 receptor, [3H]substance P
# [4] = second value of the cell pKi NK1/NK3, hNK3 receptor, [3H]SR142801
# [5] = first value of the cell NK1/NK3, read-out: pKi NK1 (converted)
# [6] = second value of the cell NK1/NK3, read-out: pKi NK3 (converted)
# human NK1 receptor, sequence (P25103 whole entry): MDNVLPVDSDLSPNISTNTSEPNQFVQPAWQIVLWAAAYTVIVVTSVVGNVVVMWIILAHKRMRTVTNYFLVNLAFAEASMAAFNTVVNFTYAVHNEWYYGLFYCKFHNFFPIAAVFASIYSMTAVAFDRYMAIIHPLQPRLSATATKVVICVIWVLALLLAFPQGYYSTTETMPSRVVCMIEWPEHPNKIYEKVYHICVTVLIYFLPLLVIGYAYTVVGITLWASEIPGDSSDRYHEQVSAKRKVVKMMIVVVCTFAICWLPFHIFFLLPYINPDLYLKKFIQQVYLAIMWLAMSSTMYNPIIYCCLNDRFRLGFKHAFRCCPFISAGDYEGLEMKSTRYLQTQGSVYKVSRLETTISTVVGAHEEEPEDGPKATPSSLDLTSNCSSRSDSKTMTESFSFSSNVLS
"Ki [1, 3] [nM]","Ki [2, 4] [nM]","Ki [1, 5] [nM]","Ki [2, 6] [nM]",Compound
2,3.39,,,CN(C(=O)C(C)(C)c1cc(C(F)(F)F)cc(C(F)(F)F)c1)c1cnc(N2C[C@H](O)C[C@H](O)C2)cc1-c1ccccc1Cl [Example 181]
,,1.35,3.47,"CN(C(=O)C(C)(C)c1cc(C(F)(F)F)cc(C(F)(F)F)c1)c1cnc(N2C[C@H](O)C[C@H]2CO)cc1-c1ccc(F)c(F)c1 [Example 209, (2S,4R)-2-(3,5-Bis-trifluoromethyl-phenyl)-N-[4-(3,4-difluoro-phenyl)-6-(4-hydroxy-2-hydroxymethyl-pyrrolidin-1-yl)-pyridin-3-yl]-N-methyl-isobutyramide]"
,,0.427,3.89,"Cc1ncccc1-c1cc(N2C[C@H](O)C[C@H]2CO)ncc1N(C)C(=O)C(C)(C)c1cc(C(F)(F)F)cc(C(F)(F)F)c1 [Example 233, (2S,4R)-2-(3,5-Bis-trifluoromethyl-phenyl)-N-[6′-(4-hydroxy-2-hydroxymethyl-pyrrolidin-1-yl)-2-methyl-[3,4′]bipyridinyl-3′-yl]-N-methyl-isobutyramide]"
,,6.31,7.41,"CN(C(=O)C(C)(C)c1cc(C(F)(F)F)cc(C(F)(F)F)c1)c1cnc(N2CCC[C@H]2CO)cc1-c1ccc(Cl)cc1 [Example 287, (S)-2-(3,5-Bis-trifluoromethyl-phenyl)-N-[4-(4-chloro-phenyl)-6-(2-hydroxymethyl-pyrrolidin-1-yl)-pyridin-3-yl]-N-methyl-isobutyramide]"
,,3.47,1.82,"CN(C(=O)C(C)(C)c1cc(C(F)(F)F)cc(C(F)(F)F)c1)c1cnc(N2CCC[C@H]2CO)cc1-c1ccccc1Br [Example 281, (S)-2-(3,5-Bis-trifluoromethyl-phenyl)-N-[4-(2-bromo-phenyl)-6-(2-hydroxymethyl-pyrrolidin-1-yl)-pyridin-3-yl]-N-methyl-isobutyramide]"
,,1.41,17.8,"Cc1ccccc1-c1cc(N2C[C@@H](O)C[C@@H]2CO)ncc1N(C)C(=O)C(C)(C)c1cc(C(F)(F)F)cc(C(F)(F)F)c1 [Example 260, (2R,4S)-2-(3,5-Bis-trifluoromethyl-phenyl)-N-[6-(4-hydroxy-2-hydroxymethyl-pyrrolidin-1-yl)-4-o-tolyl-pyridin-3-yl]-N-methyl-isobutyramide]"
7.08,12.9,,,"Cc1ccccc1-c1cc(N2CCC(CO)CC2)ncc1N(C)C(=O)C(C)(C)c1cc(C(F)(F)F)cc(C(F)(F)F)c1 [Example 172, 2-(3,5-Bis-trifluoromethyl-phenyl)-N-(4-hydroxymethyl-4′-o-tolyl-3,4,5,6-tetrahydro-2H-[1,2′]bipyridinyl-5′-yl)-N-methyl-isobutyramide]"
,,1.32,15.1,"Cc1cc(F)ccc1-c1cc(N2CCC[C@H]2COC(=O)N(C)C)ncc1N(C)C(=O)C(C)(C)c1cc(C(F)(F)F)cc(C(F)(F)F)c1 [Example 303, (S)-Dimethyl-carbamic Acid 1-[5-{[2-(3,5-bis-trifluoromethyl-phenyl)-2-methyl-propionyl]-methyl-amino}-4-(4-fluoro-2-methyl-phenyl)-pyridin-2-yl]-pyrrolidin-2-ylmethyl Ester]"
1.91,1.86,,,"Cc1ccccc1-c1cc(NC[C@@H](C)O)ncc1N(C)C(=O)C(C)(C)c1cc(C(F)(F)F)cc(C(F)(F)F)c1 [Example 173, (R)-2-(3,5-Bis-trifluoromethyl-phenyl)-N-[6-(2-hydroxy-propylamino)-4-o-tolyl-pyridin-3-yl]-N-methyl-isobutyramide]"
,,2.29,13.8,"Cc1ccc(-c2cc(N3C[C@H](O)C[C@H]3CO)ncc2N(C)C(=O)C(C)(C)c2cc(C(F)(F)F)cc(C(F)(F)F)c2)cc1F [Example 210, (2S,4R)-2-(3,5-Bis-trifluoromethyl-phenyl)-N-[4-(3-fluoro-4-methyl-phenyl)-6-(4-hydroxy-2-hydroxymethyl-pyrrolidin-1-yl)-pyridin-3-yl]-N-methyl-isobutyramide]"

# More lines, now with the values behind:
Compound,"Ki [1, 3] [nM]","Ki [2, 4] [nM]","Ki [1, 5] [nM]","Ki [2, 6] [nM]"
"CN(C(=O)C(C)(C)c1cc(C(F)(F)F)cc(C(F)(F)F)c1)c1cnc(N2CC[C@H](O)C2)cc1-c1ccccc1Cl [Example 46, (S)-2-(3,5-Bis-trifluoromethyl-phenyl)-N-[4-(2-chloro-phenyl)-6-(3-hydroxy-pyrrolidin-1-yl)-pyridin-3-yl]-N-methyl-isobutyramide]",0.603,8.71,,
"CCN(C(C)=O)C1CCN(c2cc(-c3ccccc3Cl)c(N(C)C(=O)C(C)(C)c3cc(C(F)(F)F)cc(C(F)(F)F)c3)cn2)C1 (racemic) [Example 45, (RS)-N-[6-[3-(Acetyl-ethyl-amino)-pyrrolidin-1-yl]-4-(2-chloro-phenyl)-pyridin-3-yl]-2-(3,5-bis-trifluoromethyl-phenyl)-N-methyl-isobutyramide]",2.29,2,,
"CN(C(=O)C(C)(C)c1cc(C(F)(F)F)cc(C(F)(F)F)c1)c1cnc(NC[C@@H](O)CO)cc1-c1ccccc1Cl [Example 126, (R)-2-(3,5-Bis-trifluoromethyl-phenyl)-N-[4-(2-chloro-phenyl)-6-(2,3-dihydroxy-propylamino)-pyridin-3-yl]-N-methyl-isobutyramide]",2.51,7.76,,
"CN(CC(O)CO)c1cc(-c2ccccc2Cl)c(N(C)C(=O)C(C)(C)c2cc(C(F)(F)F)cc(C(F)(F)F)c2)cn1 (racemic) [Example 58, (RS)-2-(3,5-Bis-trifluoromethyl-phenyl)-N-{4-(2-chloro-phenyl)-6-[(2,3-dihydroxy-propyl)-methyl-amino]-pyridin-3-yl}-N-methyl-isobutyramide]",2.4,5.75,,
"Cc1cc(F)ccc1-c1cc(N2CC[C@H](O)[C@H]2CO)ncc1N(C)C(=O)C(C)(C)c1cc(C(F)(F)F)cc(C(F)(F)F)c1 [Example 155, (2R,3S)-2-(3,5-Bis-trifluoromethyl-phenyl)-N-[4-(4-fluoro-2-methyl-phenyl)-6-(3-hydroxy-2-hydroxymethyl-pyrrolidin-1-yl)-pyridin-3-yl]-N-methyl-isobutyramide]",1.74,0.871,,
"CN(C(=O)C(C)(C)c1cc(C(F)(F)F)cc(C(F)(F)F)c1)c1cnc(NCCS(C)(=O)=O)cc1-c1ccccc1Cl [Example 89, 2-(3,5-Bis-trifluoromethyl-phenyl)-N-[4-(2-chloro-phenyl)-6-(2-methanesulfonyl-ethylamino)-pyridin-3-yl]-N-methyl-isobutyramide]",0.49,3.24,,
"CN(C(=O)C(C)(C)c1cc(C(F)(F)F)cc(C(F)(F)F)c1)c1cnc(N[C@@H]2CCC[C@H]2O)cc1-c1ccccc1Cl [Example 152, (1R,2R)-2-(3,5-Bis-trifluoromethyl-phenyl)-N-[4-(2-chloro-phenyl)-6-(2-hydroxy-cyclopentylamino)-pyridin-3-yl]-N-methyl-isobutyramide]",0.759,7.76,,
"CN(C(=O)C(C)(C)c1cc(C(F)(F)F)cc(C(F)(F)F)c1)c1cnc(N2CC[C@H](N(C)C)C2)cc1-c1ccccc1Cl [Example 65, (S)-2-(3,5-Bis-trifluoromethyl-phenyl)-N-[4-(2-chloro-phenyl)-6-(3-dimethylamino-pyrrolidin-1-yl)-pyridin-3-yl]-N-methyl-isobutyramide]",1.15,2.75,,
"CN(C(=O)C(C)(C)c1cc(C(F)(F)F)cc(C(F)(F)F)c1)c1cnc(N2CCCCC2CO)cc1-c1ccccc1Cl (racemic) [Example 141, (RS)-2-(3,5-Bis-trifluoromethyl-phenyl)-N-[4′-(2-chloro-phenyl)-2-hydroxymethyl-3,4,5,6-tetrahydro-2H-[1,2′]bipyridinyl-5′-yl]-N-methyl-isobutyramide]",6.46,18.6,,
"CN(C(=O)C(C)(C)c1cc(F)cc(F)c1)c1cnc(N2C[C@H](O)C[C@H]2CO)cc1-c1ccccc1Cl [Example 6, (2S,4R)-N-[4-(2-Chloro-phenyl)-6-(4-hydroxy-2-hydroxymethyl-pyrrolidin-1-yl)-pyridin-3-yl]-2-(3,5-difluoro-phenyl)-N-methyl-isobutyramide]",7.24,4.9,,
"CN(C(=O)C(C)(C)c1cc(C(F)(F)F)cc(C(F)(F)F)c1)c1cnc(N(CCO)CCO)cc1-c1ccccc1Cl [Example 82, N-[6-[Bis-(2-hydroxy-ethyl)-amino]-4-(2-chloro-phenyl)-pyridin-3-yl]-2-(3,5-bis-trifluoromethyl-phenyl)-N-methyl-isobutyramide]",0.933,0.813,,
"Cc1cc(F)ccc1-c1cc(NC[C@H](C)O)ncc1N(C)C(=O)C(C)(C)c1cc(C(F)(F)F)cc(C(F)(F)F)c1 [Example 77, (S)-2-(3,5-Bis-trifluoromethyl-phenyl)-N-[4-(4-fluoro-2-methyl-phenyl)-6-(2-hydroxy-propylamino)-pyridin-3-yl]-N-methyl-isobutyramide]",0.646,4.79,,
